Here are results for 18 molecules from patent US10112945B2, “Fused quinoline compunds as PI3K, mTOR inhibitors” (ADVENCHEN PHARMACEUTICALS, NANJING LTD., priority 2014, dated 2018).

Assay [1] addresses T1, mTor (Homo sapiens, UniProt P42345).
T1 construct: purchased Millipore/Merck KGA
The experiment in a line: In vitro kinase inhibition, mTor (Millipore/Merck kinases panel screening). Type of assay: biochemical. Conditions: compound at 0.03 μM; scaffold drawing 7 series. How it is done: (§1) In vitro kinase inhibition activities included Pi3k and mTor activities can be tested with Millipore/Merck KGA of Europe in their kinases panel screening. Animal antitumor activity testing can be conducted by various cancer xenograft models for a compound of formula I.
(§2) The following compounds or a pharmaceutically acceptable salt thereof, but not limited, can also be prepared similarly according to the methods described in Scheme I-Scheme II. They are also tested for the inhibitions on mTor or pi3k kinases, or tumor cell lines.

The subject of assay [2] is pi3K. The experiment in a line: In vitro kinase inhibition, pi3K (Millipore/Merck kinases panel screening). Conditions: compound at 0.03 μM; scaffold drawing 7 series. Format: biochemical. On the procedure:
as §1, §2

For the molecule “2-(4-methylpiperazin-1-yl)-N-(5-{16-[3-(trifluoromethyl)phenyl]-8,11,13,14,16-pentaazatetra-cyclo[8.6.0.0^2,7.0^11,15]hexadeca-1(10),2,4,6,8,12,14-heptaen-4-yl}pyridin-2-yl)acetamide”, in assay [1], the “mTor % activity @0.03 μM” value is 46%. Also, the “pi3K % activity @0.03 μM” value in assay [2] is reported as 97%.
Taken in the same sequence, the figures for “2-[(5-{16-[3-(trifluoromethyl)phenyl]-8,11,13,14,16-pentaazatetracyclo-[8.6.0.0^2,7.0^11,15]-hexadeca-1(10),2,4,6,8,12,14-heptaen-4-yl}pyridin-2-yl-amino]ethan-1-ol” were 8% and 96%.
For “12-ethyl-16-[4-fluoro-3 -(trifluoromethyl)phenyl]-4-8,11,13,14,16-pentaazatetracyclo[8.6.0.0^2,7.0^11,15]hexadeca-1(10),2,4,6,8,12,14-heptaene [3-pyridine, 4-F, CH2CH3]”, the “mTor % activity @0.03 μM” value in assay [1] is given as 73%.
As to `CN(C)CC(=O)Nc1ccc(-c2ccc3ncc4c(c3c2)n(-c2cccc(C(F)(F)F)c2)c2nncn42)cn1` [2-(dimethylamino)-N-(5-{16-[3-(trifluoromethyl)phenyl]-8,11,13,14,16-pentaazatetracyclo-[8.6.0.0^2,7.0^11,15]hexadeca-1(10),2,4,6,8,12,14-heptaen-4-yl}pyridin-2-yl)acetamide], in assay [1], the activity at 0.03 µM was determined as 7%. The “pi3K % activity @0.03 μM” value in assay [2] was determined as 89%.
Taken in the same sequence, the figures for `O=C(CN1CCOCC1)Nc1ccc(-c2ccc3ncc4c(c3c2)n(-c2cccc(C(F)(F)F)c2)c2nncn42)cn1` [2-(morpholin-4-yl)-N-(5-{16-[3-(trifluoromethyl)phenyl]-8,11,13,14,16-pentaazatetracyclo-[8.6.0.0^2,7.0^11,15]hexadeca-1(10),2,4,6,8,12,14-heptaen-4-yl}pyridin-2-yl)acetamide] were 31% and 95%.
As for `Fc1ccccc1-c1ccc2ncc3c(c2c1)n(-c1ccc(Cl)c(C(F)(F)F)c1)c1nncn31` [2-Flurophenyl, 4-Cl, H, 16-[4-chloro-3-(trifluoromethyl)phenyl]-4-(2-fluorophenyl)-8,11,13,14,16-pentaazatetracyclo-[8.6.0.0^2,7.0^11,15]hexadeca-1(10),2,4,6,8,12,14-heptaene], the activity at 0.03 µM in assay [1] turned out to be 55%.
Regarding `OCCNc1ccc(-c2ccc3ncc4c(c3c2)n(-c2ccc(Cl)c(C(F)(F)F)c2)c2nncn42)cn1` [2-[(5-{16-[4-chloro-3-(trifluoromethyl)phenyl]-8,11,13,14,16-pentaazatetracyclo-[8.6.0.0^2,7.0^11,15]-hexadeca-1(10),2,4,6,8,12,14-heptaen-4-yl}pyridin-2-yl)amino]ethanol], in assay [1], the activity at 0.03 µM was -4%. Moreover, the “pi3K % activity @0.03 μM” value in assay [2] worked out at 82%.
For `NCC(=O)Nc1ccc(-c2ccc3ncc4c(c3c2)n(-c2ccc(Cl)c(C(F)(F)F)c2)c2nncn42)cn1` [2-amino-N-(5-{16-[4-chloro-3-(trifluoromethyl)phenyl]-8,11,13,14,16-pentaazatetracyclo-[8.6.0.0^2,7.0^11,15]hexadeca-1(10),2,4,6,8,12,14-heptaen-4-yl}pyridin-2-yl)acetamide], the activity at 0.03 µM in assay [1] turned out to be 9%. Further, in assay [2], the “pi3K % activity @0.03 μM” value was 83%.
For `Fc1ccc(-c2ccc3ncc4c(c3c2)n(-c2ccc(Cl)c(C(F)(F)F)c2)c2nncn42)cc1F` [3,4-Diflurophenyl, 4-Cl, H, 16-[4-chloro-3-(trifluoromethyl)phenyl]-4-(3,4-difluorophenyl)-8,11,13,14,16-pentaazatetra-cyclo-[8.6.0.0^2,7.0^11,15]hexadeca-1(10),2,4,6,8,12,14-heptaene], the “mTor % activity @0.03 μM” value in assay [1] was determined as 31%.
The same measure, in the same setting: in the case of `Fc1cccc(-c2ccc3ncc4c(c3c2)n(-c2ccc(Cl)c(C(F)(F)F)c2)c2nncn42)c1` [3-Flurophenyl, 4-Cl, H] it was 46%.
Turning to `FC(F)(F)c1cc(-n2c3c4cc(-c5cccnc5)ccc4ncc3n3cnnc23)ccc1Cl` [3-pyridine, 4-Cl, H, 16-[4-chloro-3-(trifluoromethyl)phenyl]-4-(pyridin-3-yl)-8,11,13,14,16-pentaazatetracyclo-[8.6.0.0^2,7.0^11,15]hexadeca-1(10),2,4,6,8,12,14-heptaene], the activity at 0.03 µM in assay [1] turned out to be 19%. For the same molecule, in assay [2], the “pi3K % activity @0.03 μM” value amounted to 77%.
For `FC(F)(F)c1cc(-n2c3c4cc(-c5cnc6ccccc6c5)ccc4ncc3n3cnnc23)cc(C(F)(F)F)c1` [3-quinoline, 5-CF3, H, 16-[3,5-(trifluoromethyl)phenyl]-4-(quinolin-3yl)-8,11,13,14,16-pentaazatetracyclo-[8.6.0.0^2,7.0^11,15]hexadeca-1(10),2,4,6,8,12,14-heptaene], in assay [1], the “mTor % activity @0.03 μM” value was 0%.
In the case of `Fc1cc(-n2c3c4cc(-c5cnc6ccccc6c5)ccc4ncc3n3cnnc23)cc(C(F)(F)F)c1` [3-quinoline, 5-F, H, 16-[3-fluoro-5-(trifluoromethyl)phenyl]-4-(quinolin-3yl)-8,11,13,14,16-pentaazatetracyclo-[8.6.0.0^2,7.0^11,15]hexadeca-1(10),2,4,6,8,12,14-heptaene], in assay [1], the activity at 0.03 µM was -8%.
Turning to `Fc1ccc(C(F)(F)F)cc1-n1c2c3cc(-c4cnc5ccccc5c4)ccc3ncc2n2cnnc12` [3-quinoline, 6-F, H, 16-[2-fluoro-5-(trifluoromethyl)phenyl]-4-(quinolin-3yl)-8,11,13,14,16-pentaazatetracyclo-[8.6.0.0^2,7.0^11,15]hexadeca-1(10),2,4,6,8,12,14-heptaene], the activity at 0.03 µM in assay [1] turned out to be 0%.
On the same count and under the same terms, in the case of `CC(=O)Nc1ccc(-c2ccc3ncc4c(c3c2)n(-c2ccc(Cl)c(C(F)(F)F)c2)c2nncn42)cn1` [N-(5-pyridin-2-yl)acetamide, 4-Cl, H, N-(5-{16-[4-chloro-3-(trifluoromethyl)phenyl]-8,11,13,14,16-pentaazatetracyclo-[8.6.0.0^2,7.0^11,15]hexadeca-1(10),2,4,6,8,12,14-heptaen-4-yl}pyridin-2-yl)acetamide] it was 5%; in that of `O=C(CN1CCC(O)CC1)Nc1ccc(-c2ccc3ncc4c(c3c2)n(-c2ccc(Cl)c(C(F)(F)F)c2)c2nncn42)cn1` [N-(5-{16-[4-chloro-3-(trifluoromethyl)phenyl]-8,11,13,14,16-pentaazatetracyclo[8.6.0.0^2,7.0^11,15]-hexadeca-1(10),2,4,6,8,12,14-heptaen-4-yl}pyridin-2-yl)-2-(4-hydroxypiperidin-1-yl)acetamide], 14%; in that of `O=C1CCN(CC(=O)Nc2ccc(-c3ccc4ncc5c(c4c3)n(-c3ccc(Cl)c(C(F)(F)F)c3)c3nncn53)cn2)CC1` [N-(5-{16-[4-chloro-3-(trifluoromethyl)phenyl]-8,11,13,14,16-pentaazatetracyclo[8.6.0.0^2,7.0^11,15]-hexadeca-1(10),2,4,6,8,12,14-heptaen-4-yl}pyridin-2-yl)-2-(4-oxopiperidin-1-yl)acetamide], 57%.
On the same count and under the same terms, in the case of `CN(C)CC(=O)Nc1ccc(-c2ccc3ncc4c(c3c2)n(-c2ccc(Cl)c(C(F)(F)F)c2)c2nncn42)cn1` [N-(5-{16-[4-chloro-3-(trifluoromethyl)phenyl]-8,11,13,14,16-pentaazatetracyclo[8.6.0.0^2,7.0^11,15]-hexadeca-1(10),2,4,6,8,12,14-heptaen-4-yl}pyridin-2-yl)-2-(dimethylamino)acetamide] it was 15%.
